Measurements published in patent US11083725B2 (priority 2014, dated 2021).

System: NHBE cells
Assay: Biolog metabolic array: substrate use by NHBE cells with or without CA09 infection
Type: cell-based, human
Conditions: for Substrate use, 590 nm absorbance normalized to zero hour, 0 hr: Biolog PMM2, 0 hr; for Substrate use, 590 nm absorbance normalized to zero hour, 1 hr: Biolog PMM2, 1 hr; for Substrate use, 590 nm absorbance normalized to zero hour, 5 hr: Biolog PMM2, 5 hr; for Substrate use, 590 nm absorbance normalized to zero hour, 7 hr: Biolog PMM2, 7 hr
[1] = Control (uninfected) NHBE cells
[2] = Virus (CA09-infected NHBE cells, MOI 1)
[3] = Virus: CA09-infected NHBE cells, MOI 1, Biolog PMM2

SMILES | 590 nm absorbance normalized to zero hour (substrate use), 0 hr [1] | 590 nm absorbance normalized to zero hour (substrate use), 1 hr [1] | 590 nm absorbance normalized to zero hour (substrate use), 2 hr [1] | 590 nm absorbance normalized to zero hour (substrate use), 3 hr [1] | 590 nm absorbance normalized to zero hour (substrate use), 4 hr [1] | 590 nm absorbance normalized to zero hour (substrate use), 6 hr [1] | 590 nm absorbance normalized to zero hour (substrate use), 8 hr [1] | 590 nm absorbance normalized to zero hour (substrate use), 9 hr [1] | 590 nm absorbance normalized to zero hour (substrate use), 10 hr [1] | 590 nm absorbance normalized to zero hour (substrate use), 11 hr [1] | Substrate use, 590 nm absorbance normalized to zero hour, 0 hr [1] | Substrate use, 590 nm absorbance normalized to zero hour, 1 hr [1] | Substrate use, 590 nm absorbance normalized to zero hour, 5 hr [1] | Substrate use, 590 nm absorbance normalized to zero hour, 7 hr [1] | 590 nm absorbance normalized to zero hour (substrate use), 0 hr [2] | 590 nm absorbance normalized to zero hour (substrate use), 1 hr [2] | 590 nm absorbance normalized to zero hour (substrate use), 2 hr [2] | 590 nm absorbance normalized to zero hour (substrate use), 3 hr [2] | 590 nm absorbance normalized to zero hour (substrate use), 4 hr [2] | 590 nm absorbance normalized to zero hour (substrate use), 5 hr [2] | further results
O=C(O)CCCO [g-Hydroxy-Butyric Acid] | 1.00 | 1.24 | 1.38 | 1.92 | 1.86 | 0.79 | 1.94 | 2.09 | 2.05 | 2.76 | 1.00 | 1.24 | 1.71 | 1.88 | 1.00 | 0.53 | 0.53 | 0.41 | 0.44 | 0.50 | 590 nm absorbance normalized to zero hour (substrate use), 6 hr [2]: 0.54; 590 nm absorbance normalized to zero hour (substrate use), 7 hr [2]: 0.56; 590 nm absorbance normalized to zero hour (substrate use), 8 hr [2]: 0.59; 590 nm absorbance normalized to zero hour (substrate use), 9 hr [2]: 0.62; 590 nm absorbance normalized to zero hour (substrate use), 10 hr [2]: 0.63; 590 nm absorbance normalized to zero hour (substrate use), 11 hr [2]: 0.53; 590 nm absorbance normalized to zero hour (substrate use), 0 hr [3]: 1.00; 590 nm absorbance normalized to zero hour (substrate use), 1 hr [3]: 0.53; 590 nm absorbance normalized to zero hour (substrate use), 2 hr [3]: 0.53; 590 nm absorbance normalized to zero hour (substrate use), 3 hr [3]: 0.41; 590 nm absorbance normalized to zero hour (substrate use), 4 hr [3]: 0.44; 590 nm absorbance normalized to zero hour (substrate use), 5 hr [3]: 0.50; 590 nm absorbance normalized to zero hour (substrate use), 6 hr [3]: 0.54; 590 nm absorbance normalized to zero hour (substrate use), 7 hr [3]: 0.56; 590 nm absorbance normalized to zero hour (substrate use), 8 hr [3]: 0.59; 590 nm absorbance normalized to zero hour (substrate use), 9 hr [3]: 0.62; 590 nm absorbance normalized to zero hour (substrate use), 10 hr [3]: 0.63; 590 nm absorbance normalized to zero hour (substrate use), 11 hr [3]: 0.53
OC[C@@H](O)[C@@H](O)CO [i-Erythritol] | 1.00 | 1.76 | 2.33 | 2.67 | 2.83 | 5.19 | 3.84 | 4.30 | 4.08 | 4.22 | 1.00 | 1.76 | 3.31 | 3.78 | 1.00 | 0.23 | 0.29 | 0.32 | 0.34 | 0.39 | 590 nm absorbance normalized to zero hour (substrate use), 6 hr [2]: 0.41; 590 nm absorbance normalized to zero hour (substrate use), 7 hr [2]: 0.43; 590 nm absorbance normalized to zero hour (substrate use), 8 hr [2]: 0.45; 590 nm absorbance normalized to zero hour (substrate use), 9 hr [2]: 0.49; 590 nm absorbance normalized to zero hour (substrate use), 10 hr [2]: 0.50; 590 nm absorbance normalized to zero hour (substrate use), 11 hr [2]: 0.53; 590 nm absorbance normalized to zero hour (substrate use), 0 hr [3]: 1.00; 590 nm absorbance normalized to zero hour (substrate use), 1 hr [3]: 0.23; 590 nm absorbance normalized to zero hour (substrate use), 2 hr [3]: 0.29; 590 nm absorbance normalized to zero hour (substrate use), 3 hr [3]: 0.32; 590 nm absorbance normalized to zero hour (substrate use), 4 hr [3]: 0.34; 590 nm absorbance normalized to zero hour (substrate use), 5 hr [3]: 0.39; 590 nm absorbance normalized to zero hour (substrate use), 6 hr [3]: 0.41; 590 nm absorbance normalized to zero hour (substrate use), 7 hr [3]: 0.43; 590 nm absorbance normalized to zero hour (substrate use), 8 hr [3]: 0.45; 590 nm absorbance normalized to zero hour (substrate use), 9 hr [3]: 0.49; 590 nm absorbance normalized to zero hour (substrate use), 10 hr [3]: 0.50; 590 nm absorbance normalized to zero hour (substrate use), 11 hr [3]: 0.53
O[C@H]1[C@H](O)[C@@H](O)[C@H](O)[C@@H](O)[C@H]1O [m-Inositol] | 1.00 | 1.63 | 2.13 | 3.87 | 3.78 | 3.01 | 3.42 | 3.81 | 3.89 | 3.64 | 1.00 | 1.63 | 3.07 | 3.55 | 1.00 | 0.51 | 0.66 | 0.77 | 0.81 | 0.94 | Substrate use, 590 nm absorbance normalized to zero hour, 11 hr (Control (uninfected) NHBE cells, Biolog PMM2, 11 hr): 4.22; 590 nm absorbance normalized to zero hour (substrate use), 6 hr [2]: 0.99; 590 nm absorbance normalized to zero hour (substrate use), 7 hr [2]: 1.04; 590 nm absorbance normalized to zero hour (substrate use), 8 hr [2]: 1.10; 590 nm absorbance normalized to zero hour (substrate use), 9 hr [2]: 1.20; 590 nm absorbance normalized to zero hour (substrate use), 10 hr [2]: 1.24; 590 nm absorbance normalized to zero hour (substrate use), 11 hr [2]: 1.34; 590 nm absorbance normalized to zero hour (substrate use), 0 hr [3]: 1.00; 590 nm absorbance normalized to zero hour (substrate use), 1 hr [3]: 0.51; 590 nm absorbance normalized to zero hour (substrate use), 2 hr [3]: 0.66; 590 nm absorbance normalized to zero hour (substrate use), 3 hr [3]: 0.77; 590 nm absorbance normalized to zero hour (substrate use), 4 hr [3]: 0.81; 590 nm absorbance normalized to zero hour (substrate use), 5 hr [3]: 0.94; 590 nm absorbance normalized to zero hour (substrate use), 6 hr [3]: 0.99; 590 nm absorbance normalized to zero hour (substrate use), 7 hr [3]: 1.04; 590 nm absorbance normalized to zero hour (substrate use), 8 hr [3]: 1.10; 590 nm absorbance normalized to zero hour (substrate use), 9 hr [3]: 1.20; 590 nm absorbance normalized to zero hour (substrate use), 10 hr [3]: 1.24; 590 nm absorbance normalized to zero hour (substrate use), 11 hr [3]: 1.34
O=C(O)C(O)C(O)C(=O)O (stereo not drawn) [m-Tartaric Acid] | 1.00 | 1.39 | 1.72 | 2.14 | 2.16 | 3.24 | 2.82 | 2.95 | 2.65 | 2.75 | 1.00 | 1.39 | 2.42 | 2.70 | 1.00 | 1.50 | 1.66 | 1.90 | 1.96 | 2.05 | 590 nm absorbance normalized to zero hour (substrate use), 6 hr [2]: 2.17; 590 nm absorbance normalized to zero hour (substrate use), 7 hr [2]: 2.23; 590 nm absorbance normalized to zero hour (substrate use), 8 hr [2]: 2.28; 590 nm absorbance normalized to zero hour (substrate use), 9 hr [2]: 2.43; 590 nm absorbance normalized to zero hour (substrate use), 10 hr [2]: 2.40; 590 nm absorbance normalized to zero hour (substrate use), 11 hr [2]: 2.41; 590 nm absorbance normalized to zero hour (substrate use), 0 hr [3]: 1.00; 590 nm absorbance normalized to zero hour (substrate use), 1 hr [3]: 1.50; 590 nm absorbance normalized to zero hour (substrate use), 2 hr [3]: 1.66; 590 nm absorbance normalized to zero hour (substrate use), 3 hr [3]: 1.90; 590 nm absorbance normalized to zero hour (substrate use), 4 hr [3]: 1.96; 590 nm absorbance normalized to zero hour (substrate use), 5 hr [3]: 2.05; 590 nm absorbance normalized to zero hour (substrate use), 6 hr [3]: 2.17; 590 nm absorbance normalized to zero hour (substrate use), 7 hr [3]: 2.23; 590 nm absorbance normalized to zero hour (substrate use), 8 hr [3]: 2.28; 590 nm absorbance normalized to zero hour (substrate use), 9 hr [3]: 2.43; 590 nm absorbance normalized to zero hour (substrate use), 10 hr [3]: 2.40; 590 nm absorbance normalized to zero hour (substrate use), 11 hr [3]: 2.41
